Experimental data taken from US9150505B2, “Prophylactic or therapeutic agent for diabetes or obesity” (AJINOMOTO CO., INC., priority 2010, dated 2015).

Biological target: T1, human CaSR (Homo sapiens, UniProt P41180)
T1 construct: expressed in transfected cells; host or cells: 293E cells (EBNA1-expressing HEK293, ATCC No. CRL-10852), transient transfection of hCaSR/pcDNA3.1
T1 sequence (P41180 20-1078): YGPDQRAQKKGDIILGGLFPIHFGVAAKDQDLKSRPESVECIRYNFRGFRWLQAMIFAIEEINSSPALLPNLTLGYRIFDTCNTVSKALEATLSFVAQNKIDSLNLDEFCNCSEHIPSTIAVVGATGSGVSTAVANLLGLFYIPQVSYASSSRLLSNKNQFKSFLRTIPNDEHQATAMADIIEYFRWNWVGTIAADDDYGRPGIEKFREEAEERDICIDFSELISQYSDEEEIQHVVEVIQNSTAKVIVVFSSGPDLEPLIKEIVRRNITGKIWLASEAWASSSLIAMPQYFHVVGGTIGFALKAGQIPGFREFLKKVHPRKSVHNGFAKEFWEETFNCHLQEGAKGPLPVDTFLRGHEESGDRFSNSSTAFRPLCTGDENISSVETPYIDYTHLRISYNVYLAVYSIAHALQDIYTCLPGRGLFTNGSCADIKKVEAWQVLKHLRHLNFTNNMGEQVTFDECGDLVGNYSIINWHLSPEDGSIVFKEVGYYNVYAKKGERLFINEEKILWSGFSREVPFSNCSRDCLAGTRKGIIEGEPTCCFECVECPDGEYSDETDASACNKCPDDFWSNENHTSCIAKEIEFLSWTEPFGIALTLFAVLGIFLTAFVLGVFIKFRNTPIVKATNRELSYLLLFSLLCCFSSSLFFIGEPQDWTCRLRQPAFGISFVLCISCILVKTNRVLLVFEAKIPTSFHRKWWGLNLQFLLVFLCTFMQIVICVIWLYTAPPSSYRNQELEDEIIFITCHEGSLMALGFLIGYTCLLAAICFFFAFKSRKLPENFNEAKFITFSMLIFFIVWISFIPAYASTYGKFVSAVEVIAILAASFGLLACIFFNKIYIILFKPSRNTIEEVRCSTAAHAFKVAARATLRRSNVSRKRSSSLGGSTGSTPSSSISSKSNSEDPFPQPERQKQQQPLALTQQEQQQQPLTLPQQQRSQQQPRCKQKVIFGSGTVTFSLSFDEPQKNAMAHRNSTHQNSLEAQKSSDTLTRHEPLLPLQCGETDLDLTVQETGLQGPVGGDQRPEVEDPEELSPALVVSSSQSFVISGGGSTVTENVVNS
Experiment: Assessment of CaSR agonistic activity (Ca2+ fluorescence, FLIPR, hCaSR-transfected 293E cells)
Format: cell-based
Settings: human CaSR-expressing 293E cells, 1.5 mM CaCl2 assay buffer, 3-minute change in fluorescence intensity
Procedure: CaSR gene was prepared according to the method described in Example 1 of WO07/55393. The resulting recombinant plasmid was used to generate human CaSR-expressing plasmid hCaSR/pcDNA3.1.
293E cells (EBNA1-expressing IIEK293 cells, ATCC No. CRL-10852) were cultured in DMEM ([…] Glucose-containing Dulbecco's modified Eagle medium, Nacalai Tesque) containing 10% bovine fetal serum in the presence of 250 μg/ml of G418. The cells were seeded on a 10 cm-diameter petri dish at 1.8×10^6 cells/15 ml, and left to stand in a CO2 incubator (5% CO2, 37° C.) for 24 hours. Thereafter, human CaSR expression plasmid hCaSR/pcDNA3.1 was transfected with transfection reagent Mirus Trans IT 293 (Takara Bio). Following static culture in a CO2 incubator for 24 hours, the cells were harvested with 10% bovine fetal serum-containing DMEM and seeded on a poly-D-lysine coat 384 well plate (Falcon) at 15,000 cells/well. Following static culture in a CO2 incubator for 24 hours, the medium was removed and the resultant was added with 50 μl/well of Ca^2+ fluorescent indicator Calcium 4 Assay Kit (Molecular Devices) dissolved in an assay buffer (146 mM NaCl, 5 mM KCl, 1 mM MgSO4, 1 mg/ml Glucose, 20 mM HEPES (PH 7.2), 1.5 mM CaCl2), and left to stand at 37° C. for an hour and then at room temperature for 30 minutes to allow intake of the indicator. The above-mentioned 384-well plate was transferred to FLIPR (Molecular Devices) and added with 12.5 μl/well of a compound dissolved in a 0.1% BSA-containing assay buffer to measure 3-minute change in the fluorescence intensity.
The difference between maximum and minimum fluorescence intensities before and after compound addition (RFU (Max−Min)) was determined by FLIPR automatic calculation. An activity rate was calculated where RFU (Max−Min) upon addition of a compound at a maximum concentration was defined 100% and RFU (Max−Min) upon addition of DMSO as a substitute for the compound at the same concentration was defined 0%. The rate was subjected to curve fitting using spreadsheet software Xfit to determine EC50 value, i.e., a compound concentration upon 50% activity rate.

Work on N[C@@H](CNC(=O)Nc1cc(Cl)cc(S(=O)(=O)O)c1O)C(=O)O [Example 6, (2S)-2-amino-3-{[(5-chloro-2-hydroxy-3-sulfophenyl)carbamoyl]amino}propanoic acid] yielded an EC50 of 3 nM.
